# Assay results reported in US10316017B2, “COT modulators and methods of use thereof” (Gilead Sciences, Inc., priority 2015, dated 2019).
# Tests used:
# [1] = biological target: T1, human Cot catalytic domain (30-397 amino acids) (Homo sapiens, UniProt P41279); assay: High Throughput Cot Biochemical Assay (KinEASE TR-FRET); conditions: Cot biochemical HTRF (KinEASE TR-FRET) assay; read-out: IC50 HTRF
# T1 construct: Purified recombinant human Cot catalytic domain (30-397 amino acids) was purchased from Cama Biosciences; purchased Cama Biosciences (so in the source)
# T1 sequence (P41279 30-397): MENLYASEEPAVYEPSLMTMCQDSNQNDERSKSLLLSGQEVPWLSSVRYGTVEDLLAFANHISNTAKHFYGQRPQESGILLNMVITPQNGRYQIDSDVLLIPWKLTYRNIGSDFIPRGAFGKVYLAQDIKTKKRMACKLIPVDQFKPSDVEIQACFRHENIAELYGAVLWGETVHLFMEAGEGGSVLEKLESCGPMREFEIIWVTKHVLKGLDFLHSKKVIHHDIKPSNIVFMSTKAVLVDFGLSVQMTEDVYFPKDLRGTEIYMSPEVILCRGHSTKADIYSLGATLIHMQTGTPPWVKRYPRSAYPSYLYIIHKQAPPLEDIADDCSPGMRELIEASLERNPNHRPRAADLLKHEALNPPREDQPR
# Method in brief: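 Recombinant human Cot catalytic domain (aa 30-397), 5 nM, with 1 μM STK3 peptide and 400 μM ATP in MOPS pH 7.0 buffer with MgOAc, DTT, BSA, NP-40, glycerol, 0.1% DMSO. Phosphorylated XL665-peptide detected by Eu-[…] antibody TR-FRET.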
# [2] = test system: TNFα production in LPS-stimulated human monocytes; assay: Cot Monocyte TNFα Cell Based Assay; conditions: Homo sapiens, Monocyte, TNFα in LPS-stimulated human monocytes; read-out: EC50 TNF
# Method in brief: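 Human monocytes (5,000 cells/well) pretreated with compound for 1 hour at 37° C (0.5% DMSO), then stimulated with 50 pg/ml LPS for 4 hours. Total TNFα measured by TR-FRET after overnight antibody incubation at room temp, expressed as percent of control between unstimulated and stimulated cells.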
SMILES,IC50 [1],EC50 [2]
"CC(C)(C)N1CCC(n2cc([C@@H](Nc3cc(Cl)c4ncc(C#N)c(Nc5cncc(Cl)c5)c4c3)c3ccccc3)nn2)CC1 [Example 780, (S)-6-(((1-(1-(tert-butyl)piperidin-4-yl)-1H-1,2,3-triazol-4-yl)(phenyl)methyl)amino)-8-chloro-4-((5-chloropyridin-3-yl)amino)quinoline-3-carbonitrile]",20 nM,865 nM
"CC(C)(C)N1CCC(n2cc([C@@H](Nc3cc(Cl)c4ncc(C#N)c(Nc5ccc(Cl)c(Cl)c5F)c4c3)c3ccccc3)nn2)CC1 [Example 781, (S)-6-(((1-(1-(tert-butyl)piperidin-4-yl)-1H-1,2,3-triazol-4-yl)(phenyl)methyl)amino)-8-chloro-4-((3,4-dichloro-2-fluorophenyl)amino)quinoline-3-carbonitrile]",11 nM,597 nM
"N#Cc1cnc2c(Cl)cc(NC(c3ccc(F)cc3)c3csnn3)cc2c1Nc1ccc(F)c(Cl)c1 (stereo not drawn) [Example 784, 8-chloro-4-((3-chloro-4-fluorophenyl)amino)-6-(((4-fluorophenyl)(1,2,3-thiadiazol-4-yl)methyl)amino)quinoline-3-carbonitrile]",249 nM,1990 nM
"CC(C)(C)N1CCC(n2cc([C@@H](Nc3cc(Cl)c4ncc(C#N)c(Nc5ccc(OCc6ccccn6)c(Cl)c5)c4c3)c3ccccc3)nn2)CC1 [Example 786, (S)-6-(((1-(1-(tert-butyl)piperidin-4-yl)-1H-1,2,3-triazol-4-yl)(phenyl)methyl)amino)-8-chloro-4-((3-chloro-4-(pyridin-2-ylmethoxy)phenyl)amino)quinoline-3-carbonitrile]",173 nM,6630 nM
"CC(C)(C)N1CCC(n2cc([C@@H](Nc3cc(Cl)c4ncc(C#N)c(Nc5ccc(F)c(F)c5)c4c3)c3ccccc3)nn2)CC1 [Example 787, (S)-6-(((1-(1-(tert-butyl)piperidin-4-yl)-1H-1,2,3-triazol-4-yl)(phenyl)methyl)amino)-8-chloro-4-((3,4-difluorophenyl)amino)quinoline-3-carbonitrile]",11 nM,362 nM
"CC1(C)CC(n2cc([C@@H](Nc3cc(Cl)c4ncc(C#N)c(Nc5ccc(F)c(Cl)c5)c4c3)c3ccccc3)nn2)CCN1 (stereo partly drawn) [Example 790, 8-chloro-4-((3-chloro-4-fluorophenyl)amino)-6-(((1S)-(1-(2,2-dimethylpiperidin-4-yl)-1H-1,2,3-triazo1-4-yl)(phenyl)methyl)amino) quinoline-3-carbonitrile]",4 nM,305 nM
"CCN1CCC(n2cc([C@@H](Nc3cc(F)c4ncc(C#N)c(Nc5ccc(F)c(Cl)c5)c4c3)c3ccccc3)nn2)CC1 [Example 791, (S)-4-((3-chloro-4-fluorophenyl)amino)-6-(((1-(1-ethylpiperidin-4-yl)-1H-1,2,3-triazol-4-yl)(phenyl)methyl)amino)-8-fluoroquinoline-3-carbonitrile]",3 nM,50 nM
"CCN1CCC(n2cc([C@H](c3ccccc3)N(CC)c3cc(Cl)c4ncc(C#N)c(Nc5ccc(F)c(Cl)c5)c4c3)nn2)CC1 [Example 792, (S)-8-chloro-4-((3-chloro-4-fluorophenyl)amino)-6-(ethyl((1-(1-ethylpiperidin-4-yl)-1H-1,2,3-triazol-4-yl)(phenyl)methyl)amino) quinoline-3-carbonitrile]",5 nM,91 nM
"CN(C)CCn1cc([C@@H](Nc2cc(Cl)c3ncc(C#N)c(Nc4ccc(F)c(Cl)c4)c3c2)c2ccccc2)nn1 [Example 793, (S)-8-chloro-4-((3-chloro-4-fluorophenyl)amino)-6-(((1-(2-(dimethylamino)ethyl)-1H-1,2,3-triazol-4-yl)(phenyl)methyl)amino) quinoline-3-carbonitrile]",7 nM,209 nM
"N#Cc1cnc2c(F)cc(N[C@@H](c3ccccc3)c3cn(C4CCNCC4)nn3)cc2c1Nc1ccc(F)c(Cl)c1 [Example 794, (S)-4-((3-chloro-4-fluorophenyl)amino)-8-fluoro-6-((phenyl(1-(piperidin-4-yl)-1H-1,2,3-triazol-4-yl)methyl)amino)quinoline-3-carbonitrile]",4 nM,441 nM
"COCCn1cc([C@@H](Nc2cc(Cl)c3ncc(C#N)c(Nc4ccc(F)c(Cl)c4)c3c2)c2ccccc2)nn1 [Example 795, (S)-8-chloro-4-((3-chloro-4-fluorophenyl)amino)-6-(((1-(2-methoxyethyl)-1H-1,2,3-triazol-4-yl)(phenyl)methyl)amino)quinoline-3-carbonitrile]",13 nM,314 nM
"N#Cc1cnc2c(Cl)cc(N[C@@H](c3ccccc3)c3cn(CCN)nn3)cc2c1Nc1ccc(F)c(Cl)c1 [Example 796, (S)-6-(((1-(2-aminoethyl)-1H-1,2,3-triazol-4-yl)(phenyl)methyl)amino)-8-chloro-4-((3-chloro-4-fluorophenyl)amino)quinoline-3-carbonitrile]",2 nM,200 nM
"CN(C)CCCn1cc([C@@H](Nc2cc(Cl)c3ncc(C#N)c(Nc4ccc(F)c(Cl)c4)c3c2)c2ccccc2)nn1 [Example 797, (S)-8-chloro-4-((3-chloro-4-fluorophenyl)amino)-6-(((1-(3-(dimethylamino)propyl)-1H-1,2,3-triazol-4-yl)(phenyl)methyl)amino) quinoline-3-carbonitrile]",3 nM,107 nM
"N#Cc1cnc2c(Cl)cc(N[C@@H](c3ccc(Cl)cc3)c3cn(C4CCN(C5COC5)CC4)nn3)cc2c1Nc1ccc(F)c(Cl)c1 [Example 802, (S)-8-chloro-4-((3-chloro-4-fluorophenyl)amino)-6-(((4-chlorophenyl)(1-(1-(oxetan-3-yl)piperidin-4-yl)-1H-1,2,3-triazol-4-yl)methyl)amino)quinoline-3-carbonitrile]",78 nM,963 nM
"CC(C)(C)N1CCC(n2cc([C@@H](Nc3cc(Cl)c4ncc(C#N)c(Nc5ccc(F)c(Cl)c5)c4c3)c3ccc(Cl)cc3)nn2)CC1 [Example 803, (S)-6-(((1-(1-(tert-butyl)piperidin-4-yl)-1H-1,2,3-triazol-4-yl)(4-chlorophenyl)methyl)amino)-8-chloro-4-((3-chloro-4-fluorophenyl)amino)quinoline-3-carbonitrile]",7 nM,206 nM
"Cc1nonc1C(Nc1cc(Cl)c2ncc(C#N)c(Nc3ccc(F)c(Cl)c3)c2c1)c1ccc(F)cc1 (stereo not drawn) [Example 805, 8-chloro-4-((3-chloro-4-fluorophenyl)amino)-6-(((4-fluorophenyl)(4-methyl-1,2,5-oxadiazol-3-yl)methyl)amino)quinoline-3-carbonitrile]",588 nM,> 1000 nM
"N#Cc1cnc2c(Cl)cc(NC(c3ccc(F)cc3)c3cscn3)cc2c1Nc1ccc(F)c(Cl)c1 (stereo not drawn) [Example 806, 8-chloro-4-((3-chloro-4-fluorophenyl)amino)-6-(((4-fluorophenyl)(thiazol-4-yl)methyl)amino)quinoline-3-carbonitrile]",850 nM,> 50000 nM
"CC1(Cn2cc([C@@H](Nc3cc(Cl)c4ncc(C#N)c(Nc5ccc(F)c(Cl)c5)c4c3)c3ccc(F)cc3)nn2)COC1 [Example 808, (S)-8-chloro-4-((3-chloro-4-fluorophenyl)amino)-6-(((4-fluorophenyl)(1-((3-methyloxetan-3-yl)methyl)-1H-1,2,3-triazol-4-yl)methyl)amino)quinoline-3-carbonitrile]",26 nM,434 nM
